In US20160184434A1, “AGENT FOR PROMOTING IN VIVO ABSORPTION OF HYDROXYTYROSOL AND DERIVATIVES THEREOF AND USE OF SAME” (priority 2013, published 2016):

Assays:
[1] = Blood hydroxytyrosol after oral administration with EGCG or EGC (Example 1, HPLC); type: in vivo, SD (IGS) male rats; conditions: rats
Source text: The present inventors analyzed the influence of the particular compound having a galloyl group, i.e., EGCG, on the absorption of hydroxytyrosol in the body. At the same time, the inventors also analyzed the influence of EGC, a compound having no galloyl group, on the absorption of hydroxytyrosol in the body. By comparing the results for EGCG with those for the control, we investigated whether the galloyl group is involved in the absorption of hydroxytyrosol in the body.
SD (IGS) male rats (5 weeks old) were purchased from Oriental Bioservice, Inc. and habituated to the test environment for one week, and then those rats which were well grown were put to use in the selected test. Those rats fasted overnight were divided into three groups each consisting of 4 or 5 animals. Group 1 (control) was given 5 mL/kg of distilled water and 50 mg/5 mL/kg of a commercial hydroxytyrosol solution in distilled water; Group 2 was given 100 mg/5 mL/kg of an EGC solution in distilled water and 50 mg/5 mL/kg of a hydroxytyrosol solution in distilled water; and Group 3 was given 150 mg/5 mL/kg of an EGCG solution in distilled water and 50 mg/5 mL/kg of a hydroxytyrosol solution in distilled water—all of the groups were orally administered using a sonde. Before and at 0.25, 0.5, 1, 3 and 6 hours after the start of treatment, blood was sampled from the tail vein using a heparin-coated blood collection tube and centrifuged (at 8000 rpm for 10 min) to obtain plasma samples. The obtained plasma samples were subjected to deconjugation and deproteinization treatments, and the resulting supernatants were concentrated under reduced pressure, redissolved in 20% acetonitrile, and passed through a filter. The resulting solutions were analyzed by HPLC to determine their peak areas. Thus, quantification of hydroxytyrosol was performed. The EGCG used in this example was a commercially available EGCG product (EGCG purity: 94%). The HPLC conditions are shown below.
Column: X-bridge C18 (3.5 μm, 2.1×150 mm, produced by Waters)
Mobile phase: A: 0.1% acetic acid solution in water, B: 0.1% acetic acid/90% acetonitrile solution in water

[2] = Blood hydroxytyrosol after oral administration with 500 mg/kg grape seed extract (Example 2, LC/MS/MS); type: in vivo, SD (IGS) male rats; conditions: rats, hydroxytyrosol 30 mg/kg alone
Method: The present inventors investigated the influence of an OPC on the absorption of hydroxytyrosol in the body.
SD (IGS) male rats (9 weeks old) were purchased from Oriental Bioservice, Inc. and habituated to the test environment for one week, and then those rats which were well grown were put to use in the selected test. Those rats fasted overnight were divided into two groups each consisting of 5 or 6 animals. Group 1 (control) was given 30 mg/5 mL/kg of a hydroxytyrosol solution in distilled water; and Group 2 was given 30 mg/kg of hydroxytyrosol plus 5 mL/kg of a solution of 500 mg/kg grape seed extract in distilled water—both of the groups were orally administered using a sonde. Before and at 0.25, 0.5, 1, 2, 3 and 6 hours after the start of treatment, blood was sampled from the tail vein using a heparin-coated blood collection tube and centrifuged (at 8000 rpm for 10 min) to obtain plasma samples. The obtained plasma samples were subjected to deconjugation and deproteinization treatments, and the resulting supernatants were concentrated under reduced pressure, redissolved in 20% acetonitrile, and passed through a filter. The resulting solutions were analyzed by LC/MS/MS, and quantification of hydroxytyrosol was performed using the internal standard method. HPLC conditions
Internal standard (I.S.): 3-(4-hydroxyphenyl)-1-propanol […]

[3] = Blood hydroxytyrosol after oral administration with reduced doses of grape seed extract (Example 3); type: in vivo; conditions: male, SD (IGS), rat, rats, hydroxytyrosol 30 mg/kg alone (control), plasma, read-out: AUC of hydroxytyrosol at 0 to 6 hours
Source text: The present inventors investigated whether the same promoting effect on the absorption of hydroxytyrosol in the body as observed in Example 2 can be observed even if the dose of the grape seed extract is reduced.
SD (IGS) male rats (9.5 weeks old) were purchased from Oriental Bioservice, Inc. and habituated to the test environment for two weeks, and then those rats which were well grown were put to use in the selected test. Those rats fasted overnight were divided into three groups each consisting of 4 animals. Group 1 (control) was given 30 mg/5 mL/kg of a hydroxytyrosol solution in distilled water; Group 2 was given 30 mg/kg of hydroxytyrosol plus 5 mL/kg of a solution of 150 mg/kg grape seed extract in distilled water; and Group 3 was given 30 mg/kg of hydroxytyrosol plus 5 mL/kg of a solution of 250 mg/kg grape seed extract in distilled water—all of the groups were orally administered using a sonde. Before and at 0.25, 0.5, 1, 2, 3 and 6 hours after the start of treatment, blood was sampled from the tail vein using a heparin-coated blood collection tube and centrifuged (at 8000 rpm for 10 min) to obtain plasma samples. […] The resulting solutions were analyzed by LC/MS/MS, and quantification of hydroxytyrosol was performed using the internal standard method. […]

[4] = Blood hydroxytyrosol after oral administration with 150 to 750 mg/kg grape seed extract (Example 4); type: in vivo; conditions: male, SD (IGS), rat, rats, hydroxytyrosol 30 mg/kg alone (control), plasma, read-out: AUC of hydroxytyrosol at 0 to 6 hours
Method: The present inventors investigated whether the same promoting effect on the absorption of hydroxytyrosol in the body can be observed even if the dose of the grape seed extract is further increased in the same test system as used for the investigations in Examples 2 and 3. […] The method for calculating this purity will be presented later in Example 5. Also, the amount of a galloyl group contained in the grape seed extract was measured as the amount of a galloyl ester and determined to be about 2.2% by weight. The method for calculating this amount will be presented later in Example 6.
SD (IGS) male rats (8 weeks old) were purchased from Oriental Bioservice, Inc. and habituated to the test environment for one week, and then those rats which were well grown were put to use in the selected test. Those rats fasted overnight were divided into five groups each consisting of 4 animals (however, Group 5 consists of 2 animals). […]
The obtained plasma samples were subjected to deconjugation and deproteinization treatments, and the resulting supernatants were concentrated under reduced pressure, redissolved in 20% acetonitrile, and passed through a filter. The resulting solutions were analyzed by LC/MS/MS, and quantification of hydroxytyrosol was performed using the internal standard method. […]

[5] = hydroxytyrosol 50 mg/kg concurrently with EGCG 150 mg/kg

blood hydroxytyrosol concentration after its peak (absorption profile) [1, 5] | time at which blood hydroxytyrosol concentration reached its peak [1, 5] [min] | AUC ([1]; male, SD (IGS), rat, hydroxytyrosol 50 mg/kg alone (control), plasma, read-out: AUC of hydroxytyrosol (amount absorbed in the body)) [ng·h/mL] | time at which blood hydroxytyrosol concentration reached its peak ([1]; hydroxytyrosol 50 mg/kg alone) [min] | blood hydroxytyrosol at 2 or 3 hours after administration [2] | AUC [3] [ng·h/mL] | AUC [4] [ng·h/mL] | SMILES
kept high even thereafter | 30 | – | – | – | – | – | O=C(O[C@@H]1Cc2c(O)cc(O)cc2O[C@@H]1c1cc(O)c(O)c(O)c1)c1cc(O)c(O)c(O)c1 [EGCG, epigallocatechin gallate]
– | – | 12000 | 18 | little or no hydroxytyrosol was detected | 8640 | 7360 | OCCc1ccc(O)c(O)c1 [hydroxytyrosol, 3,4-dihydroxyphenylethanol]
